Among the data in BindingDB's records for doi:10.1016/j.bmcl.2008.01.028 (Nih, 2008) are IC50 values, retold here.

Some results are limits rather than exact numbers.

The target of one assay is cAMP-specific 3',5'-cyclic phosphodiesterase 4A (Homo sapiens, UniProt P27815). Kind of assay: PDE4A Inhibition Assay.
cAMP-specific 3',5'-cyclic phosphodiesterase 4A, sequence (P27815 whole entry): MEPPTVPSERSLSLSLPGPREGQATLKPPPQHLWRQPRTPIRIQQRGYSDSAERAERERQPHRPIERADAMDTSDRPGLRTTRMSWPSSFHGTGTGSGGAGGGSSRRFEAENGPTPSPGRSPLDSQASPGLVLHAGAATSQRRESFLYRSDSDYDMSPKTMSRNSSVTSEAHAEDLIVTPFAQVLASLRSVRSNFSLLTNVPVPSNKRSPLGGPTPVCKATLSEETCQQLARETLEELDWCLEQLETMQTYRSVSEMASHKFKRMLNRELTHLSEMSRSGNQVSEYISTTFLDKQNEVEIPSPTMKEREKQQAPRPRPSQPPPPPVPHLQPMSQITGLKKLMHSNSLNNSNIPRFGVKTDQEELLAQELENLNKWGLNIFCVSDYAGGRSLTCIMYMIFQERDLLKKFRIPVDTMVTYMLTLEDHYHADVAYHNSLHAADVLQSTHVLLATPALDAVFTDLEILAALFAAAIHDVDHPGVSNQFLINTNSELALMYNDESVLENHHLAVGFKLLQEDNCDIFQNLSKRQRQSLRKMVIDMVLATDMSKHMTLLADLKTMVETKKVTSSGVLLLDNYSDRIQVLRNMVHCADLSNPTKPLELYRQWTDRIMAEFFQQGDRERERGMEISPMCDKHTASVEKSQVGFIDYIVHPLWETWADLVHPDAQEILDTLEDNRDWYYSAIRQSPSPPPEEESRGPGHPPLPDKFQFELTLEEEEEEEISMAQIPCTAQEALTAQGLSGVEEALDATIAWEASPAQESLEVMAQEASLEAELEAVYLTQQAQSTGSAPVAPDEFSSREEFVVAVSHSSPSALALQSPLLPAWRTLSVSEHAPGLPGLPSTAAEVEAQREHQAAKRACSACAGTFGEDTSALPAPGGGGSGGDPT
Settings: not given
How it is done: Inhibition of PDE4A was performed using IMAP technology (Molecular Devices, CA). PDE4A1A mixture was dispensed into 1536-well black/solid bottom assay plates (Greiner Bio-One North America, NC) using a Flying Reagent Dispenser (Aurora Discovery, CA). The plates were centrifuged at 1000 rpm for 30s and compound was transferred to the assay plate using a Kalypsys pin tool. After incubation, cAMP was dispensed into the plates to initiate the reaction. IMAP binding reagent was then added to the assay plate after the reaction.
Compound `COc1ccc(C2=Nn3c(nnc3-c3ccc(OC)cc3)SC2)cc1` gave an IC50 of 8.4 µM. On the same count and under the same terms, then `COc1cccc(-c2nnc3n2N=C(c2cc(OC)ccc2OC)CS3)c1`, with 12.6 µM; and `COc1cccc(C2=Nn3c(nnc3-c3ccccc3C)SC2)c1` [triazolothiadiazine, 7I], with 3.2 µM; and `CCOc1ccccc1-c1nnc2n1N=C(c1cccc(OC)c1)CS2` [triazolothiadiazine, 7J], with 11.2 µM. Same read-out and setting: next, `COc1cccc(C2=Nn3c(nnc3-c3ccccc3O)SC2)c1` [triazolothiadiazine, 7K]: 14.1 µM; `COc1ccc(C2=Nn3c(nnc3-c3ccccc3OC)SC2)cc1` [triazolothiadiazine, 8A]: above 20 µM. `COc1ccc(C2=Nn3c(nnc3-c3cccc(OC)c3)SC2)cc1` [triazolothiadiazine, 8B] registered an IC50 of 12.6 µM. This lies in the double-digit micromolar range. Same read-out and setting: then `COc1ccc(C2=Nn3c(nnc3-c3cccc(OC)c3OC)SC2)cc1` [triazolothiadiazine, 8D], with above 20 µM.

Compound `COc1ccc(C2=Nn3c(nnc3-c3ccc(OC)cc3OC)SC2)cc1` [triazolothiadiazine, 8E] gave an IC50 above 20 µM.

In the case of `COc1ccc(C2=Nn3c(nnc3-c3cc(OC)ccc3OC)SC2)cc1` [triazolothiadiazine, 8F], the IC50 was 1.7 µM.

Turning to `COc1ccc(C2=Nn3c(nnc3-c3ccc(OC)c(OC)c3)SC2)cc1` [triazolothiadiazine, 8G], the IC50 worked out at 7.5 µM.

`COc1ccc(C2=Nn3c(nnc3-c3cc(OC)cc(OC)c3)SC2)cc1` [triazolothiadiazine, 8H] returned an IC50 of 9.5 µM. The same measure, in the same setting: next, `COc1ccc(C2=Nn3c(nnc3-c3ccccc3C)SC2)cc1` [triazolothiadiazine, 8I]: 12.5 µM; `CCOc1ccccc1-c1nnc2n1N=C(c1ccc(OC)cc1)CS2` [triazolothiadiazine, 8J]: 4.5 µM; `COc1ccc(C2=Nn3c(nnc3-c3ccccc3O)SC2)cc1` [triazolothiadiazine, 8K]: 8.4 µM. On to `COc1ccc(C2=Nn3c(nnc3-c3ccccc3OC)SC2)c(OC)c1` [triazolothiadiazine, 9A], for which it took 15 µM to reach half-maximal inhibition (IC50).

Take `COc1cccc(-c2nnc3n2N=C(c2ccc(OC)cc2OC)CS3)c1` [triazolothiadiazine, 9B]: half-maximal inhibition (IC50) was put at 14.1 µM. As for `COc1ccc(-c2nnc3n2N=C(c2ccc(OC)cc2OC)CS3)cc1` [triazolothiadiazine, 9C], it took 13.4 µM to reach half-maximal inhibition (IC50). Same read-out and setting: then `COc1ccc(C2=Nn3c(nnc3-c3cccc(OC)c3OC)SC2)c(OC)c1` [triazolothiadiazine, 9D], with above 20 µM. Same read-out and setting: then `COc1ccc(C2=Nn3c(nnc3-c3ccc(OC)cc3OC)SC2)c(OC)c1` [triazolothiadiazine, 9E], with above 20 µM; and `COc1ccc(C2=Nn3c(nnc3-c3cc(OC)ccc3OC)SC2)c(OC)c1` [triazolothiadiazine, 9F], with 7.5 µM. The same measure, in the same setting: then `COc1ccc(C2=Nn3c(nnc3-c3ccc(OC)c(OC)c3)SC2)c(OC)c1` [triazolothiadiazine, 9G], with 6.7 µM; and `COc1cc(OC)cc(-c2nnc3n2N=C(c2ccc(OC)cc2OC)CS3)c1` [triazolothiadiazine, 9H], with above 20 µM; and `COc1ccc(C2=Nn3c(nnc3-c3ccccc3C)SC2)c(OC)c1` [triazolothiadiazine, 9I], with above 20 µM. Take `CCOc1ccccc1-c1nnc2n1N=C(c1ccc(OC)cc1OC)CS2` [triazolothiadiazine, 9J]: the IC50 was above 20 µM.

As for `COc1ccc(C2=Nn3c(nnc3-c3ccccc3O)SC2)c(OC)c1` [triazolothiadiazine, 9K], the IC50 was above 20 µM. On the same count and under the same terms, next, `COc1ccc(OC)c(C2=Nn3c(nnc3-c3ccccc3OC)SC2)c1` [triazolothiadiazine, 10A]: 8.9 µM.

`COc1ccc(-c2nnc3n2N=C(c2cc(OC)ccc2OC)CS3)cc1` [triazolothiadiazine, 10C] displayed an IC50 of 10.1 µM. In turn, `COc1ccc(OC)c(C2=Nn3c(nnc3-c3cccc(OC)c3OC)SC2)c1` [triazolothiadiazine, 10D] had an IC50 of 11.9 µM. This IC50 and that of the compound before are within 1.5-fold of each other. On the same count and under the same terms, next, `COc1ccc(-c2nnc3n2N=C(c2cc(OC)ccc2OC)CS3)c(OC)c1` [triazolothiadiazine, 10E]: 5.3 µM; `COc1ccc(OC)c(C2=Nn3c(nnc3-c3cc(OC)ccc3OC)SC2)c1` [triazolothiadiazine, 10F]: 11.9 µM; `COc1ccc(OC)c(C2=Nn3c(nnc3-c3ccc(OC)c(OC)c3)SC2)c1` [triazolothiadiazine, 10G]: 6.9 µM. Same read-out and setting: then `COc1cc(OC)cc(-c2nnc3n2N=C(c2cc(OC)ccc2OC)CS3)c1` [triazolothiadiazine, 10H], with 12.7 µM.

Compound `COc1ccc(OC)c(C2=Nn3c(nnc3-c3ccccc3C)SC2)c1` [triazolothiadiazine, 10I] registered an IC50 of 6.3 µM.

Take `CCOc1ccccc1-c1nnc2n1N=C(c1cc(OC)ccc1OC)CS2` [triazolothiadiazine, 10J]: the IC50 amounted to 13.4 µM.

For the compound `COc1ccc(OC)c(C2=Nn3c(nnc3-c3ccccc3O)SC2)c1` [triazolothiadiazine, 10K], the IC50 is above 20 µM. On the same count and under the same terms, then `COc1ccccc1-c1nnc2n1N=C(c1c(OC)cccc1OC)CS2` [triazolothiadiazine, 11A], with above 20 µM. Still for that read-out and setting: next, `COc1cccc(-c2nnc3n2N=C(c2c(OC)cccc2OC)CS3)c1` [triazolothiadiazine, 11B]: above 20 µM. Same read-out and setting: next, `COc1ccc(-c2nnc3n2N=C(c2c(OC)cccc2OC)CS3)cc1` [triazolothiadiazine, 11C]: 19.7 µM; `COc1cccc(-c2nnc3n2N=C(c2c(OC)cccc2OC)CS3)c1OC` [triazolothiadiazine, 11D]: above 20 µM. As for `COc1ccc(-c2nnc3n2N=C(c2c(OC)cccc2OC)CS3)c(OC)c1` [triazolothiadiazine, 11E], the IC50 was above 20 µM. Same read-out and setting: next, `COc1ccc(OC)c(-c2nnc3n2N=C(c2c(OC)cccc2OC)CS3)c1` [triazolothiadiazine, 11F]: above 20 µM. Still for that read-out and setting: next, `COc1ccc(-c2nnc3n2N=C(c2c(OC)cccc2OC)CS3)cc1OC` [triazolothiadiazine, 11G]: 14.1 µM; `COc1cc(OC)cc(-c2nnc3n2N=C(c2c(OC)cccc2OC)CS3)c1` [triazolothiadiazine, 11H]: 19.6 µM; `COc1cccc(OC)c1C1=Nn2c(nnc2-c2ccccc2C)SC1` [triazolothiadiazine, 11I]: 14.1 µM. On the same count and under the same terms, then `CCOc1ccccc1-c1nnc2n1N=C(c1c(OC)cccc1OC)CS2` [triazolothiadiazine, 11J], with above 20 µM.

The assay is the same for the next values; noted with them: pH 7.2; 22 °C.
In the case of `COc1cccc(-c2nnc3n2N=C(c2ccc(OC)c(OC)c2)CS3)c1` [triazolothiadiazine, 5B], the IC50 was determined as 0.126 µM.

On to `COc1ccc(-c2nnc3n2N=C(c2ccc(OC)c(OC)c2)CS3)cc1` [triazolothiadiazine, 5C], for which half-maximal inhibition (IC50) was put at 0.0889 µM. On the same count and under the same terms, then `COc1ccc(-c2nnc3n2N=C(c2ccc(OC)c(OC)c2)CS3)c(OC)c1` [triazolothiadiazine, 5E], with 0.079 µM; and `COc1ccc(C2=Nn3c(nnc3-c3ccc(OC)c(OC)c3)SC2)cc1OC` [triazolothiadiazine, 5G], with 0.177 µM. Same read-out and setting: next, `COc1cc(OC)cc(-c2nnc3n2N=C(c2ccc(OC)c(OC)c2)CS3)c1` [triazolothiadiazine, 5H]: 0.05 µM. On the same count and under the same terms, then `COc1ccccc1C1=Nn2c(nnc2-c2ccccc2OC)SC1` [triazolothiadiazine, 6A], with 20 µM; and `COc1cccc(-c2nnc3n2N=C(c2ccccc2OC)CS3)c1` [triazolothiadiazine, 6B], with 13.4 µM.

In turn, `COc1ccc(-c2nnc3n2N=C(c2ccccc2OC)CS3)cc1` [triazolothiadiazine, 6C] had an IC50 of 14.1 µM. Turning to `COc1ccccc1C1=Nn2c(nnc2-c2cccc(OC)c2OC)SC1` [triazolothiadiazine, 6D], the IC50 was above 20 µM. The same measure, in the same setting: next, `COc1ccc(-c2nnc3n2N=C(c2ccccc2OC)CS3)c(OC)c1` [triazolothiadiazine, 6E]: 19.7 µM. Compound `COc1ccc(OC)c(-c2nnc3n2N=C(c2ccccc2OC)CS3)c1` [triazolothiadiazine, 6F] returned an IC50 of 19.6 µM.

`COc1ccc(-c2nnc3n2N=C(c2ccccc2OC)CS3)cc1OC` [triazolothiadiazine, 6G] had an IC50 of 8.9 µM. On the same count and under the same terms, next, `COc1cc(OC)cc(-c2nnc3n2N=C(c2ccccc2OC)CS3)c1` [triazolothiadiazine, 6H]: 13.4 µM; `COc1ccccc1C1=Nn2c(nnc2-c2ccccc2C)SC1` [triazolothiadiazine, 6I]: 14.1 µM; `CCOc1ccccc1-c1nnc2n1N=C(c1ccccc1OC)CS2` [triazolothiadiazine, 6J]: above 20 µM. The compound `COc1ccccc1C1=Nn2c(nnc2-c2ccccc2O)SC1` [triazolothiadiazine, 6K] registered an IC50 above 20 µM. Same read-out and setting: next, `COc1cccc(C2=Nn3c(nnc3-c3ccccc3OC)SC2)c1` [triazolothiadiazine, 7A]: 12 µM. Still for that read-out and setting: next, `COc1cccc(C2=Nn3c(nnc3-c3cccc(OC)c3)SC2)c1` [triazolothiadiazine, 7B]: 12.6 µM; `COc1ccc(-c2nnc3n2N=C(c2cccc(OC)c2)CS3)cc1` [triazolothiadiazine, 7C]: 8.4 µM; `COc1cccc(C2=Nn3c(nnc3-c3cccc(OC)c3OC)SC2)c1` [triazolothiadiazine, 7D]: above 20 µM. The same measure, in the same setting: then `COc1cccc(C2=Nn3c(nnc3-c3ccc(OC)cc3OC)SC2)c1` [triazolothiadiazine, 7E], with 13.4 µM; and `COc1cccc(C2=Nn3c(nnc3-c3cc(OC)ccc3OC)SC2)c1` [triazolothiadiazine, 7F], with 8 µM; and `COc1cccc(C2=Nn3c(nnc3-c3ccc(OC)c(OC)c3)SC2)c1` [triazolothiadiazine, 7G], with 9 µM. As for `COc1cccc(C2=Nn3c(nnc3-c3cc(OC)cc(OC)c3)SC2)c1` [triazolothiadiazine, 7H], the IC50 turned out to be 13.4 µM.
